Data on 33 compounds can be found in BindingDB's records for doi:10.1016/j.ejmech.2018.11.015 (Fudan University, 2019).

This assay is described as follows: Inhibition of PB2 in Influenza A virus (A/Weiss/1943(H1N1)) infected in MDCK cells assessed as reduction in virus induced cell death after 5 days by CCK-8 assay. In general terms: Formazan colour is commonly taken as a measure of viable cells.

As a reminder, the EC50 is the concentration giving half of the maximal effect.

Regarding `O=C(O)[C@H]1C2CCC(CC2)[C@@H]1Nc1nc(-c2c[nH]c3ncc(F)cc23)ncc1F`, the EC50 worked out at 0.6 nM.

`O=C(O)[C@H]1C2CCC(CC2)[C@@H]1N1CCOc2cnc(-c3c[nH]c4ncc(F)cc34)nc21`: the concentration giving a half-maximal response (EC50) came out at 24 nM.

Regarding `Cn1cc(F)c2c(N[C@H]3C4CCC(CC4)[C@@H]3C(=O)O)nc(-c3c[nH]c4ncc(F)cc34)nc21`, the concentration for a half-maximal effect (EC50) came out at 9.6 nM.

Consider `O=C(O)[C@H]1C2CCC(CC2)[C@@H]1Nc1nc(-c2c[nH]c3ncc(F)cc23)nc2c1CCS2`, for which the concentration giving a half-maximal response (EC50) was found to be 2.8 nM.

For the compound `N#Cc1cn([C@H]2C3CCC(CC3)[C@@H]2C(=O)O)c2nc(-c3c[nH]c4ncc(F)cc34)ncc12`, the EC50 worked out at 70 nM.

`N#Cc1csc2c(N[C@H]3C4CCC(CC4)[C@@H]3C(=O)O)nc(-c3c[nH]c4ncc(F)cc34)nc12`: the concentration for a half-maximal effect (EC50) was 4 nM.

As for `O=C(O)[C@H]1C2CCC(CC2)[C@@H]1Nc1nc(-c2c[nH]c3ncc(F)cc23)nc2c1S(=O)(=O)CC2`, the EC50 was 110 nM.

On to `O=C(O)[C@H]1C2CCC(CC2)[C@@H]1Nc1nc(-c2c[nH]c3ncc(F)cc23)nc2c1CS(=O)(=O)C2`, for which the concentration giving a half-maximal response (EC50) was 2000 nM.

Regarding `O=C(O)[C@H]1C2CCC(CC2)[C@@H]1Nc1nc(-c2n[nH]c3ncc(F)cc23)nc2ccsc12`, the EC50 was 0.5 nM.

Regarding `O=C(O)[C@H]1C2CCC(CC2)[C@@H]1Nc1nc(-c2n[nH]c3ncc(F)cc23)nc2sccc12`, the EC50 was found to be 0.06 nM.

For `O=C(O)[C@H]1C2CCC(CC2)[C@@H]1Nc1nc(-c2n[nH]c3ncc(F)cc23)nc2c1SCC2`, the EC50 is 0.2 nM.

In the case of `O=C(O)[C@H]1C2CCC(CC2)[C@@H]1Nc1nc(-n2ccc3ncc(F)cc32)ncc1F`, the 50% effective concentration (EC50) was determined as 230 nM.

On to `O=C(O)[C@H]1C2CCC(CC2)[C@@H]1Nc1nc(-c2c[nH]c3ccc(F)cc23)ncc1F`, for which the EC50 was determined as 220 nM.

`O=C(O)[C@H]1C2CCC(CC2)[C@@H]1n1cnc2cnc(-c3c[nH]c4ncc(F)cc34)nc21`: the EC50 turned out to be 190 nM.

As to `O=C(O)[C@H]1C2CCC(CC2)[C@@H]1Nc1nc(-c2c[nH]c3ncc(F)cc23)nc2cccc(F)c12`, the EC50 was 20 nM.

For the compound `O=C(O)[C@H]1C2CCC(CC2)[C@@H]1Nc1nc(-c2c[nH]c3ncc(F)cc23)nc2cccnc12`, the concentration for a half-maximal effect (EC50) stood at 14 nM.

`Cc1cccc2nc(-c3c[nH]c4ncc(F)cc34)nc(N[C@H]3C4CCC(CC4)[C@@H]3C(=O)O)c12`: the EC50 stood at 11 nM.

Regarding `O=C(O)[C@H]1C2CCC(CC2)[C@@H]1Nc1nc(-c2c[nH]c3ncc(F)cc23)nc2nccnc12`, the half-maximal effective concentration (EC50) worked out at 13 nM.

With `O=C(O)[C@H]1C2CCC(CC2)[C@@H]1Nc1nc(-c2c[nH]c3ncc(F)cc23)nc2c1CCCC2`, the EC50 was found to be 12 nM.

Turning to `O=C(O)[C@H]1C2CCC(CC2)[C@@H]1Nc1nc(-c2c[nH]c3ncc(F)cc23)nc2c1CCC2`, the EC50 was 5.5 nM.

With `O=C(O)[C@H]1C2CCC(CC2)[C@@H]1Nc1nc(-c2c[nH]c3ncc(F)cc23)nc2ccoc12`, the EC50 was 5.3 nM.

On to `O=C(O)[C@H]1C2CCC(CC2)[C@@H]1Nc1nc(-c2c[nH]c3ncc(F)cc23)nc2scnc12`, for which the EC50 was 3 nM.

Consider `O=C(O)[C@H]1C2CCC(CC2)[C@@H]1Nc1nc(-c2c[nH]c3ncc(F)cc23)nc2[nH]ccc12`, for which the EC50 stood at 4.5 nM.

Take `Cc1cnc2c(N[C@H]3C4CCC(CC4)[C@@H]3C(=O)O)nc(-c3c[nH]c4ncc(F)cc34)nc2c1`: the EC50 is 11 nM.

For `O=C(O)[C@H]1C2CCC(CC2)[C@@H]1Nc1nc(-c2c[nH]c3ncc(F)cc23)nc2cc(F)cnc12`, the half-maximal effective concentration (EC50) is 10 nM.

In the case of `O=C(O)[C@H]1C2CCC(CC2)[C@@H]1Nc1nc(-c2c[nH]c3ncc(F)cc23)nc2ccsc12`, the EC50 is 0.5 nM.

As to `O=C(O)[C@H]1C2CCC(CC2)[C@@H]1Nc1nc(-c2c[nH]c3ncc(F)cc23)nc2sccc12`, the EC50 is 0.2 nM.

Take `O=C(O)[C@H]1C2CCC(CC2)[C@@H]1Nc1nc(-c2c[nH]c3ncc(F)cc23)nc2c1SCC2`: the EC50 is 0.4 nM.

As to `O=C(O)[C@H]1C2CCC(CC2)[C@@H]1Nc1nc(-c2c[nH]c3ncc(F)cc23)nc2cscc12`, the 50% effective concentration (EC50) came out at 1.4 nM.

Take `O=C(O)[C@H]1C2CCC(CC2)[C@@H]1Nc1nc(-c2c[nH]c3ncc(F)cc23)nc2cc(C(F)F)sc12`: the EC50 is 10 nM.

For `O=C(O)[C@H]1C2CCC(CC2)[C@@H]1n1ccc2cnc(-c3c[nH]c4ncc(F)cc34)nc21`, the concentration giving a half-maximal response (EC50) was found to be 12 nM.

For `O=C(O)[C@H]1C2CCC(CC2)[C@@H]1Nc1nc(-c2c[nH]c3ncc(F)cc23)nc2c1CSC2`, the EC50 was found to be 2.6 nM.

Turning to `Cc1cccc2nc(N[C@H]3C4CCC(CC4)[C@@H]3C(=O)O)nc(-c3c[nH]c4ncc(F)cc34)c12`, the 50% effective concentration (EC50) was determined as 450 nM.
